Measured values from patent publication US11021444B2, “Antiviral compounds” (priority 2013, dated 2021).
Where two headings read alike, the source gives them in different places.

Legend:
RSV replicon = assay: microbe, parasite or virus in culture; format: cell-based; settings: human respiratory syncytial virus, read-out: EC50, the concentration of the drug required for reducing RSV replicon RNA by 50%
recombinant RSV complex = recombinant RSV complex (Human respiratory syncytial virus A, UniProt P28887); assay: RSV Polymerase Inhibition Assay; format: biochemical
In short: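 Inhibition measured as reduced incorporation of radiolabel into RNA products, detected by scintillation counting. Reactions: recombinant RSV complex (10 nM), RNA oligonucleotides, Tris-HCl pH 7.5, 6 mM MgCl2, inhibitor titration, 2 h at 30 °C, EDTA stop.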

[1] = system: Respiratory Syncytial Virus (RSV) long strain; assay: microbe, parasite or virus in culture; format: cell-based; settings: human respiratory syncytial virus, Tables A and B list compounds by EC50 band
In short: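 CPE-reduction format: viability measured colorimetrically with CCK-8 (450 nm, 630 nm reference) after 3-4 h, following 5-day infection at 37 °C, 5% CO2. Cells were HEp-2; inoculum 100 TCID50/well; duplicate 9-point 1/3 series starting at 100 μM or 1 μM.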

[2] = Cytotoxicity Determination (CCK-8, without addition of virus); format: cell-based; settings: human, 50% cytotoxicity concentration (CC50)
In short: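 Cytotoxicity was measured by CCK-8 after 3-4 hours at 37 °C, following 5 days of uninfected exposure at 37 °C and 5% CO2. Compounds ran as duplicate 7-point 1/2 dilutions starting at 100 μM, with 1% final DMSO. HEp-2 cells had been plated at 1,500/well the day before.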

[3] = HEp-2, 120 h, read-out: 50% effective concentration (EC50), HEp-2 cells infected with RSV long strain, 5 days, CCK-8 readout
[4] = 120 h, read-out: 50% effective concentration (EC50), HEp-2 cells infected with RSV long strain, 5 days, CCK-8 readout

Sequence of recombinant RSV complex (P28887 whole entry): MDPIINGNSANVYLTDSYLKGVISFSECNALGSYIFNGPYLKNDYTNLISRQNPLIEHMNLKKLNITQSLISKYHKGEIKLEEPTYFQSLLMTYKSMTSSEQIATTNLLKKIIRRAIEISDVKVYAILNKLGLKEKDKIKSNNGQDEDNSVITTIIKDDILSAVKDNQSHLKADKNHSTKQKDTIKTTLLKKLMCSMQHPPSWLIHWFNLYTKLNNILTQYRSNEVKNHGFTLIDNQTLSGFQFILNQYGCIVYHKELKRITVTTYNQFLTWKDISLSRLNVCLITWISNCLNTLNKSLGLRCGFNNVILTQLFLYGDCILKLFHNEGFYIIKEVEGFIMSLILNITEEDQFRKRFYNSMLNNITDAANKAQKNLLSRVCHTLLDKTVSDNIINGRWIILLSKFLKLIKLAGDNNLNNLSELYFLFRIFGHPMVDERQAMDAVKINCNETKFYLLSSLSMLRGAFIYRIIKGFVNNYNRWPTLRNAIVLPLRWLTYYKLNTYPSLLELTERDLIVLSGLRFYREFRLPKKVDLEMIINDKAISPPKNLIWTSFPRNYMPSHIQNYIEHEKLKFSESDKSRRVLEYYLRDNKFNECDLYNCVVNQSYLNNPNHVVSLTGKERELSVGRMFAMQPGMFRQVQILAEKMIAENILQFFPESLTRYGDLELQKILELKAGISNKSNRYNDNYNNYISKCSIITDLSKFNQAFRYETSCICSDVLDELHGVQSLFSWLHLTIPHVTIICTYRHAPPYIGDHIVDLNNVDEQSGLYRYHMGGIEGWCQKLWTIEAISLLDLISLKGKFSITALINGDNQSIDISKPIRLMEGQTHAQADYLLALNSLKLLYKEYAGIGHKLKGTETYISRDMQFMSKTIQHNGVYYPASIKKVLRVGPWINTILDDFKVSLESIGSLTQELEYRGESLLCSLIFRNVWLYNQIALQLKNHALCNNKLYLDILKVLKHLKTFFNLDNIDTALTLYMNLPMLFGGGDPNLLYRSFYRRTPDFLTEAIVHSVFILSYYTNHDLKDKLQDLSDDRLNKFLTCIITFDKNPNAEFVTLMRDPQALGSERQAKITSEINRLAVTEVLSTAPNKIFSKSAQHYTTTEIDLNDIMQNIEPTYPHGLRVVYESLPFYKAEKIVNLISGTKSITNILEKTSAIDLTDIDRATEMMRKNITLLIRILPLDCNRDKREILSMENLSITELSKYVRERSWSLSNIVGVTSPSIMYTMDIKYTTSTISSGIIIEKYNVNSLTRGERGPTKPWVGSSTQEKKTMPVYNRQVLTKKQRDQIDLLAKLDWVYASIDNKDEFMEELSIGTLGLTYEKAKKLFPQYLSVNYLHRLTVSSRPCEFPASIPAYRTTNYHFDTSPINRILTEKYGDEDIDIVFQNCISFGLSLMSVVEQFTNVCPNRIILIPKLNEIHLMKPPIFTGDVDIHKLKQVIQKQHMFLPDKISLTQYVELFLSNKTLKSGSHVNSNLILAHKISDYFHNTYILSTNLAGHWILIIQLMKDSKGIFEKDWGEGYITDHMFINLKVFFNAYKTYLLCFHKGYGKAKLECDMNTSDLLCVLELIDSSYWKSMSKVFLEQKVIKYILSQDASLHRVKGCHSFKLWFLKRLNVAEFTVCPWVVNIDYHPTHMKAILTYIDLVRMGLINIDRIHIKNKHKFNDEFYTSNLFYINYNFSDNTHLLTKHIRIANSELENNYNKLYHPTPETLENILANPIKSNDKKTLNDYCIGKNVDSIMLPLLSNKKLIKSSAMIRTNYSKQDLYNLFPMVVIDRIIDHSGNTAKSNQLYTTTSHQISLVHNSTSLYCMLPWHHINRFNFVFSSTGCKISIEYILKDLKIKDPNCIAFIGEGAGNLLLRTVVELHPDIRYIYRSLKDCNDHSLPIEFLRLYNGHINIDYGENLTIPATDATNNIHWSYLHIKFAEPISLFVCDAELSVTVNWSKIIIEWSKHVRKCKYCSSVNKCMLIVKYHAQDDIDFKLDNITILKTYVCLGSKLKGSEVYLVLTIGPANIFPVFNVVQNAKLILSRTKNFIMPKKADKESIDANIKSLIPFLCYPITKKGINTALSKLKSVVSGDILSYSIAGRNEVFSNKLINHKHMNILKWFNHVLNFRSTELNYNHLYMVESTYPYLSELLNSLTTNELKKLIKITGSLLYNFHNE
Sequence of recombinant RSV complex (P03421 whole entry, further chain): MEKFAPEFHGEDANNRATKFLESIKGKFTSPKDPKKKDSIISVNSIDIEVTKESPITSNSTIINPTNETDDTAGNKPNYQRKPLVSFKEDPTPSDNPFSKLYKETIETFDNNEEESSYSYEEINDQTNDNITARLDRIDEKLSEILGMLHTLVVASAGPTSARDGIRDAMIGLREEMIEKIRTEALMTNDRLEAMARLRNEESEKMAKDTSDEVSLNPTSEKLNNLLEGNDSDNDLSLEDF

Compound	EC50 (RSV replicon)	IC50 (recombinant RSV complex)	EC50 [1, 3]	CC50 at 5 days [2]	EC50 [1, 4]
COc1cc(C(=O)NCC(N)(c2ccc(OC)c(-c3ccc(F)c(Cl)c3)n2)C(F)(F)F)ccc1OC1CC1 (stereo not shown) [Compound 503]	< 1000 nM	< 1000 nM	< 1000 nM	10 to 100 µM	
COc1cc(C(=O)NCC(O)(Cn2ccnc2)c2ccc(OC)c(-c3ccc(F)c(Cl)c3)n2)ccc1OCCO (stereo not shown) [Compound 191]	< 1000 nM	< 1000 nM	< 1000 nM	> 100 µM	
COc1cc(C(=O)NCC(O)(c2cc3c(c(-c4ccc(F)cc4)n2)OCC3(C)N)C(F)(F)F)ccc1OCCO (stereo not shown) [Compound 539]	< 1000 nM	< 1000 nM	< 1000 nM	10 to 100 µM	
COc1cc(C(=O)NCC(O)(c2cc3c(c(-c4ccc(F)cc4)n2)OCC3(C)CN)C(F)(F)F)ccc1OC1CC1 (stereo not shown) [Compound 538]	< 1000 nM	< 1000 nM	< 1000 nM	10 to 100 µM	
COc1cc(C(=O)NCC(O)(c2cc(C(C)(C)N)cc(-c3ccc(F)cc3)n2)C(F)(F)F)ccc1OC[C@@H](C)O (stereo partly shown) [Compound 586]	< 1000 nM	< 1000 nM	< 1000 nM	10 to 100 µM	
COc1cc(C(=O)NCC(O)(c2cc3c(c(-c4ccc(F)c(Cl)c4)n2)CNC3(C)C)C(F)(F)F)ccc1OC1CC1 (stereo not shown) [Compound 526]	< 1000 nM	< 1000 nM	< 1000 nM	10 to 100 µM	
COc1cc(C(=O)NCC(O)(c2cc3c(c(-c4ccc(F)c(Cl)c4)n2)OCCC3)C2CC2)ccc1OCCO (stereo not shown) [Compound 309]	< 1000 nM	< 1000 nM	< 1000 nM	10 to 100 µM	
COc1cc(C(=O)NCC(O)(c2cc(C(C)(N)CF)cc(-c3ccc(F)cc3)n2)C(F)(F)F)ccc1OC[C@@H](C)O (stereo partly shown) [Compound 614]	< 1000 nM	< 1000 nM	< 1000 nM	10 to 100 µM	
COc1cc(C(=O)NCC(O)(c2cc(CNC(C)=O)cc(-c3ccc(F)c(Cl)c3)n2)C(F)(F)F)ccc1OC1CC1 (stereo not shown) [Compound 328]	< 1000 nM	< 1000 nM	< 1000 nM	10 to 100 µM	
COc1cc(C(=O)NCC(O)(c2ccc(OC)c(-c3ccc(F)c(Cl)c3)n2)C(F)(F)F)ccc1OC1CCC1 (stereo not shown) [Compound 245]	< 1000 nM	< 1000 nM	< 1000 nM	> 100 µM	
COc1cc(C(=O)NCC(O)(c2cc(C(C)(C)N)cc(-c3ccc(F)c(Cl)c3)n2)C(F)(F)F)ccc1OC[C@@H](C)O (stereo partly shown) [Compound 317]	< 1000 nM	< 1000 nM	< 1000 nM	10 to 100 µM	
COc1cc(C(=O)NCC(O)(c2ccc(OC)c(-c3ccc(F)c(Cl)c3)n2)C(F)(F)F)ccc1OC1(CF)CC1 (stereo not shown) [Compound 248]	< 1000 nM	< 1000 nM	< 1000 nM	> 100 µM	
COc1cc(C(=O)NC[C@](O)(c2cc(C(C)(C)N)cc(-c3ccc(C#N)cc3)n2)C(F)(F)F)ccc1OC[C@@H](C)O [Compound 624b]	< 1000 nM	< 1000 nM	< 1000 nM	> 100 µM	
COc1cc(C(=O)NCC(O)(c2ccc(OC)c(-c3ccc(F)c(Cl)c3)n2)C(F)(F)F)ccc1OCC(N)=O (stereo not shown) [Compound 240]	< 1000 nM	< 1000 nM		10 to 100 µM	< 1000 nM
CCC(O)(CNC(=O)c1ccc(OCCF)c(OC)c1)c1ccc(OC)c(-c2ccc(F)c(Cl)c2)n1 (racemic) [Compound 122]	< 1000 nM	< 1000 nM	< 1000 nM	10 to 100 µM	
COc1cc(C(=O)NCC(O)(c2cc(C(C)(C)NC(C)C)cc(-c3ccc(F)c(Cl)c3)n2)C(F)(F)F)ccc1OC1CC1 (stereo not shown) [Compound 392]	< 1000 nM	< 1000 nM	< 1000 nM	10 to 100 µM	

Compound	EC50 (RSV replicon)	IC50 (recombinant RSV complex)	EC50 [1, 3]	CC50 at 5 days [2]	EC50 [1, 4]
COc1cc(C(=O)NCC(O)(c2cc3c(c(-c4ccc(F)c(F)c4)n2)OCC3(C)N)C(F)(F)F)ccc1OCCO (stereo not shown) [Compound 663]	< 1000 nM	< 1000 nM	< 1000 nM	10 to 100 µM	
COc1cc(C(=O)NCC(C)(O)c2ccc(OC)c(-c3ccc(F)c(Cl)c3)n2)ccc1OC(C)(C)C (stereo not shown) [Compound 371]	< 1000 nM	< 1000 nM	< 1000 nM	10 to 100 µM	
COc1cc(C(=O)NCC(F)(CO)c2ccc(OC)c(-c3ccc(F)c(Cl)c3)n2)ccc1OC1CC1 (stereo not shown) [Compound 385]	< 1000 nM	< 1000 nM	< 1000 nM	10 to 100 µM	
COc1cc(C(=O)NCC(O)(c2cc(C(C)(C)N)cc(-c3ccc(F)cc3)n2)C2CC2)ccc1OCCO (stereo not shown) [Compound 634]	< 1000 nM	< 1000 nM	< 1000 nM	> 100 µM	
CCC1(N)COc2c1cc(C(O)(CNC(=O)c1ccc(OCCO)c(OC)c1)C(F)(F)F)nc2-c1ccc(F)cc1 (stereo not shown) [Compound 530]	< 1000 nM	< 1000 nM		10 to 100 µM	< 1000 nM
COc1cc(C(=O)NCC(O)(CNC2CC2)c2ccc(OC)c(-c3ccc(F)c(Cl)c3)n2)ccc1OCCO (stereo not shown) [Compound 189]	< 1000 nM	< 1000 nM	< 1000 nM	> 100 µM	
COc1cc(C(=O)NCC(N)(c2cc(C(C)(C)N)cc(-c3ccc(F)c(Cl)c3)n2)C(F)(F)F)ccc1OC1CC1 (stereo not shown) [Compound 504]	< 1000 nM	< 1000 nM	< 1000 nM	10 to 100 µM	
COc1cc(C(=O)NCC(O)(c2ccc(OC)c(-c3ccc(F)c(Cl)c3)n2)C(F)F)ccc1OC1CC1 (stereo not shown) [Compound 445]	< 1000 nM	< 1000 nM	< 1000 nM	10 to 100 µM	
COc1cc(C(=O)NCC(O)(c2cc(C(C)(C)NC(C)=O)cc(-c3ccc(F)c(Cl)c3)n2)C(F)(F)F)ccc1OC1CC1 (stereo not shown) [Compound 326]	< 1000 nM	< 1000 nM	< 1000 nM	10 to 100 µM	
COc1cc(C(=O)NCC(C)(O)c2cc(C(C)(C)C)cc(-c3ccc(F)c(Cl)c3)n2)ccc1OCCO (stereo not shown) [Compound 467]	< 1000 nM	< 1000 nM	< 1000 nM	10 to 100 µM	
COc1cc(C(=O)NCC(O)(c2cc3c(c(-c4ccc(F)cc4)n2)OCC3(C)N)C(F)(F)F)cc2ccc(=O)[nH]c12 (stereo not shown) [Compound 642]	< 1000 nM	< 1000 nM	< 1000 nM	10 to 100 µM	
COc1ccc(C(O)(CO)CNC(=O)c2ccc(OC3CCNC3=O)c(Cl)c2)nc1-c1ccc(F)c(Cl)c1 (stereo not shown) [Compound 452]	< 1000 nM	< 1000 nM	< 1000 nM	10 to 100 µM	
COc1cc(C(=O)NCC(=O)c2cc3c(c(-c4ccc(F)c(Cl)c4)n2)OCC3(C)C)cc2cccnc12 [Compound 220]	1000 to 50000 nM	< 1000 nM		> 100 µM	< 1000 nM
COc1cc(C(=O)NCC(O)(c2cc3c(c(-c4ccc(F)c(Cl)c4)n2)OCC3(C)C)C(F)(F)F)ccc1OC1CCNC1=O (stereo not shown) [Compound 200]	< 1000 nM	< 1000 nM		10 to 100 µM	< 1000 nM
C=CC(O)(CNC(=O)c1ccc(OCCF)c(OC)c1)c1ccc(OC)c(-c2ccc(F)c(Cl)c2)n1 (stereo not shown) [Compound 126]	< 1000 nM	< 1000 nM	< 1000 nM	10 to 100 µM	
